The target in the test is T1, RET V804M (Homo sapiens, UniProt P07949, V804M).
T1 construct: purchased Thermo Fisher Scientific (Life Technologies) SelectScreen
The experiment in a line: SelectScreen LanthaScreen. Format: binding. The note with it: read-out: % displacement. Put shortly: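 NU5455 was profiled across the SelectScreen Broad panel of kinase activity and binding assays. Z'LYTE reactions such as CSF1R ran at apparent Km ATP, while the Adapta CAMK1 assay used ATP listed as 10. Values are given as percent.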
(In general: In TR-FRET formats the signal depends on donor and acceptor labels being close together.)

These results are taken from article PMC6934184, “Selective DNA-PKcs inhibition extends the therapeutic index of localized radiotherapy and chemotherapy” (The Journal of Clinical Investigation, 2019).

The structures appear in SMILES notation.

T1 sequence (P07949 29-1114 V804M): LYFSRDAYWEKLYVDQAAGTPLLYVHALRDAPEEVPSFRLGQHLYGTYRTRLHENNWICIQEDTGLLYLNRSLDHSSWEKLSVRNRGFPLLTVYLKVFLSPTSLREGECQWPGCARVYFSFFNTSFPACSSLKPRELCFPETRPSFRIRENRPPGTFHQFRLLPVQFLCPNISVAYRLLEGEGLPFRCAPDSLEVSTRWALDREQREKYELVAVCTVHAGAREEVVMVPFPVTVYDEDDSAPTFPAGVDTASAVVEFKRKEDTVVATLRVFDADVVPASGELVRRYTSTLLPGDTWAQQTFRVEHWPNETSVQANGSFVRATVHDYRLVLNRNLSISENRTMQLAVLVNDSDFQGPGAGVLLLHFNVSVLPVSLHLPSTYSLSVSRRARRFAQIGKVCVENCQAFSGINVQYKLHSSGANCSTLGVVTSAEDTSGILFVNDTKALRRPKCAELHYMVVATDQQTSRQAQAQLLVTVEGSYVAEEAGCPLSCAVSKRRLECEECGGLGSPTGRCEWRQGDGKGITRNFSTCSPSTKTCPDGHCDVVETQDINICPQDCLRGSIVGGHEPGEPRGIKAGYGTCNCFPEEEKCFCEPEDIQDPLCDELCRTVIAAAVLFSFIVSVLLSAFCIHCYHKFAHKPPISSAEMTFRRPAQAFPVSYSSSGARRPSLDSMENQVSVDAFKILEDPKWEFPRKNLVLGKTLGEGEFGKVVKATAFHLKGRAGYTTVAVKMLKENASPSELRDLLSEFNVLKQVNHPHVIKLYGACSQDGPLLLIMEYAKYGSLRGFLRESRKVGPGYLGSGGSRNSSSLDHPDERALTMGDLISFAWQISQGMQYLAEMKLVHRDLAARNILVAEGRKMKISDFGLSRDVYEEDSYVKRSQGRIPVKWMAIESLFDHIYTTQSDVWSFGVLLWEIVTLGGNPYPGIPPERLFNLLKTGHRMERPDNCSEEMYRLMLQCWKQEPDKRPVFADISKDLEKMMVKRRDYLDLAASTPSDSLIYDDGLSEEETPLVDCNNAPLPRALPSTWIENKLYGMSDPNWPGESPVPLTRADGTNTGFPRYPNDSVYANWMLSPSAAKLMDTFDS

On to `CN(C(=O)CN1CCOCC1)c1ccc2sc3c(-c4cccc5c(=O)cc(N6CC7CCC(C6)O7)oc45)cccc3c2c1` [NU5455], for which the inhibition at 1 µM is 11.3%.
